The test system of one series is Caco-2 cell monolayers. The experiment in a line: Caco-2 cell monolayer transport assay. Format: in vitro ADME. Particulars: apical pH 6.5 to basolateral pH 7.4, 0 mM HNAP. (In general: Caco-2 monolayers are a common model of the intestinal barrier.)
The test system of another series is rat jejunum. The experiment in a line: Rat jejunal single-pass perfusion assay. Format: in vivo. Particulars: for rat jejunal Peff in the absence of HNAP: drug perfused alone, 0 mM HNAP.
Another series can be described thus: Octanol-buffer. The following applies: Log PAB versus cLog P of free drug.
For series [1] the following is noted: in humans; cited from earlier work.
For series [2] the following is noted: rat, in vivo; cited from earlier work.
In series [3] the test system is influenza virus neuraminidase. The following applies: influenza virus neuraminidase inhibitor; cited from earlier work.

These results are taken from publication PMC3496398 (Molecular pharmaceutics, 2010).

“Also recorded” adds a separate entry of the source.

One may read the IC50 as the concentration at which inhibition is half-maximal.

For the compound `CCOC(=O)C1=C[C@@H](OC(CC)CC)[C@H](NC(C)=O)[C@@H](NC(=N)N)C1` [GO, (3R,4R,5S)-ethyl-4-acetamido-5-guanidino-3-(pentan-3-yloxy)cyclohex-1-enecarboxylate], the “Caco-2 Papp in the absence of HNAP” value in the series on Caco-2 cell monolayers is listed as “no detectable transport”. For the same compound, in the series on rat jejunum (co-perfusion with 12 mM HNAP versus drug alone), the “change of rat jejunal Peff on co-perfusion with HNAP” value is recorded as “failed to increase; also recorded: no significant increase”. Moreover, the “rat jejunal Peff in the absence of HNAP” value in the series on rat jejunum is “No effective permeability; also recorded: Essentially zero”. The “increase of log P by ion-pairing with HNAP compared to the free drug” value in “Octanol-buffer” is 3.7 units.
Regarding `CCOC(=O)C1=C[C@@H](OC(CC)CC)[C@H](NC(C)=O)[C@@H](N)C1` [OSV, oseltamivir], the oral absorption in series [1] was 60–80%.
With `CCCCCCCOC(=O)C1=C[C@H](NC(=N)N)[C@@H](NC(C)=O)[C@H]([C@H](O)[C@H](O)CO)O1` [ZHE, 5-Acetamido-2,6-anhydro-4-(guanidino)-3,4,5-trideoxy-D-glycero-D-galcto-non-2-enonic acid heptyl ester], the “Caco-2 Papp in the absence of HNAP” value with Caco-2 cell monolayers is “no detectable transport”. Besides, the “rat jejunal Peff at 4 mM HNAP” value with rat jejunum (4 mM HNAP) worked out at 2.1e-05 cm/s. The “rat jejunal Peff at 10 mM HNAP” value in the series with rat jejunum (10 mM HNAP) is 4e-05 cm/s. The “rat jejunal Peff in the absence of HNAP” value with rat jejunum is listed as “essentially zero”. In the series “Octanol-buffer”, the “increase of log P by ion-pairing with HNAP compared to the free drug” value came out at 1.2 units.
In the case of `CC(=O)N[C@H]1[C@H]([C@H](O)[C@H](O)CO)OC(C(=O)O)=C[C@@H]1N=C(N)N` [ZNV, Zanamivir], in series [2], the “percent of oral dose absorbed (%F)” value is 4%.
For the compound `CCC(CC)O[C@@H]1C=C(C(=O)O)C[C@H](NC(=N)N)[C@H]1NC(C)=O` [active carboxylate of GO], in series [3], the IC50 was 0.9 nM.
